Measured values reported in patent US20210198647A1, “Enhancers of Neurolysin Activity” (Texas Tech University System, priority 2018, published 2021).
Like-named read-outs stand apart in the source and are kept apart here. Square brackets hold non-standard residues; d marks the D form. Peptide text beside a SMILES is read from it. * marks the point of attachment. Boc = CC(C)(C)OC(=O)*

Target: T1, Neurolysin (Nln) (Rattus norvegicus, UniProt P42676)
T1 construct: polyhistidine (N); made in house; host or cells: Escherichia coli (pBAD/His vector), if the rat enzyme of b61 was used
Assay: Nln activation in isolated enzyme assay (A50, Amax)
Assay type: biochemical

[1] = 100% = normal enzyme turnover, 95% CI in parentheses

T1 sequence (P42676 38-704): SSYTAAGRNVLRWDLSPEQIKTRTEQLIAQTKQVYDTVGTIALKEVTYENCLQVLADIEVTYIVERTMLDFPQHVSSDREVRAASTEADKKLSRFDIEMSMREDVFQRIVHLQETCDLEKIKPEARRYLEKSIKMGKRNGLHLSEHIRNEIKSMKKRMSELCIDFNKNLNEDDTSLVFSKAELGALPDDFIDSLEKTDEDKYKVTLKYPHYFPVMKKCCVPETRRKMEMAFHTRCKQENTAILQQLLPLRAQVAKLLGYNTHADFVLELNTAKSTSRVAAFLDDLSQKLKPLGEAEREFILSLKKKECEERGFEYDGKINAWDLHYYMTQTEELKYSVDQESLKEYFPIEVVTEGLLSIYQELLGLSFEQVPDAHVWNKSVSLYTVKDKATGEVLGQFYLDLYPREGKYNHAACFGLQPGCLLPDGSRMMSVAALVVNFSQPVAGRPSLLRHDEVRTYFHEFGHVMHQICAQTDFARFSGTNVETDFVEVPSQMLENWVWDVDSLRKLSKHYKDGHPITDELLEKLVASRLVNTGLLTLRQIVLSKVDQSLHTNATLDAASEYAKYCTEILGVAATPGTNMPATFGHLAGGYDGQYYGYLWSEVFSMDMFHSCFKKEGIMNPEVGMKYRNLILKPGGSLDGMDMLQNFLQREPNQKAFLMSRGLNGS

Amax (maximum % activation achieved)	Structure (SMILES)	Amax (maximum % activation achieved) [1]	other results
305.2 (285.3 to 328) %	N[C@@H](Cc1c[nH]cn1)C(=O)NCc1ccc(C(F)(F)F)cc1 [DF-8-2]	–	–
–	N[C@@H](Cc1c[nH]cn1)C(=O)NCc1ccc2ccccc2c1 [DF-9-2]	262.3 (246.7 to 279.4) %	EC50 (95% CI in parentheses, read-out: A50 (concentration required to activate Nln by 50%)): 12.3 µM
334 (313.7 to 357.2) %	N[C@@H](Cc1c[nH]cn1)C(=O)NCc1ccccc1C(F)(F)F [DF-10-2]	–	–
396.2 (384.5 to 408.5) %	N[C@H](Cc1c[nH]cn1)C(=O)NCCc1ccccc1C(F)(F)F [HP2CF3]	–	–
502 (488.4 to 515.7) %	N[C@H](C(=O)N1CCC[C@H]1C(=O)O)c1c[nH]cn1 [His-Pro]	–	–
–	CC(C)(C)OC(=O)N[C@@H](Cc1c[nH]cn1)C(=O)N[C@H](Cc1ccccc1)C(=O)O [NK-61-2A] (Boc-His-[dF]-OH)	Inactive	A50 (concentration required to activate Nln by 50%) (95% CI in parentheses): Inactive
–	N[C@@H](Cc1c[nH]cn1)C(=O)NCCc1ccccc1 [NK-61-4A]	231 (216.2 to 248.9) %	–
–	CC(C)(C)OC(=O)N[C@@H](Cc1c[nH]cn1)C(=O)NCCc1cc2ccccc2[nH]1 [PT-1-172]	Inactive	A50 (concentration required to activate Nln by 50%) (95% CI in parentheses): Inactive
–	O=C(CCc1cnc[nH]1)NCCc1c[nH]c2ccccc12 [PT-1-177]	Inactive	A50 (concentration required to activate Nln by 50%) (95% CI in parentheses): Inactive
–	COc1cccc(CCNC(=O)[C@H](N)Cc2c[nH]cn2)c1 [SR15-1d]	255.3 (230.5 to 284.8) %	–
324.9 (304 to 349) %	COc1ccccc1CNC(=O)[C@H](N)Cc1c[nH]cn1 [SR16-1d]	–	–
323.7 (310.3 to 337.9) %	N[C@@H](Cc1c[nH]cn1)C(=O)NCCc1ccc2ccccc2c1 [SR18-1]	–	–
339.8 (325.4 to 355.4) %	N[C@H](Cc1c[nH]cn1)C(=O)NCCc1ccc2ccccc2c1 [SR19-2d]	–	–
428.8 (373 to 523.5) %	COc1ccc(CNC(=O)[C@@H](N)Cc2c[nH]cn2)cc1 [SR20-1d]	–	–
–	N[C@@H](Cc1c[nH]cn1)C(=O)N1CCCC1 [SR-5-3d]	173 (158.5 to 194.1) %	–
259 (240.7 to 281) %	N[C@@H](Cc1c[nH]cn1)C(=O)NCCc1cc2ccccc2[nH]1 [SR-7-2d]	–	–
132 (122.5 to 143.6) %	N[C@H](Cc1c[nH]cn1)C(=O)NCCc1cc2ccccc2[nH]1 [SR-8-2d]	–	–
–	N[C@@H](Cc1c[nH]cn1)C(=O)NCc1cccc2ccccc12 [SR-9-1d]	264 (256.3 to 272.6) %	–
–	N[C@H](Cc1c[nH]cn1)C(=O)NCc1cccc2ccccc12 [SR-10-1d]	343 (325.2 to 363.5) %	–
